This assay concerns the target T1, SHP2 catalytic domain (219–528), C459S, wild-type (inactive) (Homo sapiens, UniProt Q06124, C459S).
T1 construct: SHP2 catalytic domains (219–528 with or without C459S) were sub-cloned into pBH4 vectors; His6 (N); made in house; host or cells: E. coli BL21 (DE3)
T1 sequence (Q06124 219-528 C459S): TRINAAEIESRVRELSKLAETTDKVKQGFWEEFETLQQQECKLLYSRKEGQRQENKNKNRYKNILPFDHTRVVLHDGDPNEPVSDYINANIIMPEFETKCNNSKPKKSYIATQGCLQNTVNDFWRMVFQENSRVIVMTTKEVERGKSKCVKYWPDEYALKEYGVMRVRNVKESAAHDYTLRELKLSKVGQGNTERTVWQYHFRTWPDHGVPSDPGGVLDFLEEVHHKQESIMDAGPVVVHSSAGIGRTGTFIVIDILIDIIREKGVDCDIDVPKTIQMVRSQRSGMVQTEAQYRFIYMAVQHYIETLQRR
Put plainly: Fluorescence polarization titrations, inactive SHP2 catalytic domain. Type of assay: binding. To be noted: competitive FP titration vs CF-ppIRS1 100 nM, protein fixed, unlabelled peptide varied; n = 3 technical replicates. From the text:
The two SH2 domains of PI3KR1 (UniProt P27986; nSH2: 321−433 cSH2: 614–724) were cloned from HEK293T cDNA pool, and subsequently ligated into a modified pET vector encoding maltose binding protein (MBP) tag on the N-terminal and a hexa-His tag on the C-terminal end of the construct. Similarly, the catalytic, tyrosine phosphatase domains of PTPRε (P23469 first domain: 107–399) and PTP1B (P18031; 1–229) were cloned from a HEK293T cDNA pool, and inserted into a pBH4 vector encoding an N-terminal His6 tag (for the final binding experiments, an MBP-tagged version of PTPRε was employed). […] Wild-type C-terminal FLAG-tagged human IRS1 was cloned between HindIII-NotI sites of pcDNA3.1(+) vector (#V79020 Invitrogen, Waltham MA USA). Ser/Ala mutant IRS1 was generated by replacing the region of S616/S636/S666/S736 positions with a cassette carrying S616A/S636A/S666A/S736A mutations. All constructs were validated by complete Sanger sequencing before protein expression and purification. The oligonucleotide sequences used are shown on Supplementary table 4.
Fluorescence polarization was always measured in triplicates, on black Corning low volume round bottom 384-well plates (with 10 ul volumes), using a BioTek Cytatation 5 reader, with the green fluorescent protein (GFP) cube filter set (ex: 485/20, em: 528/20, gain: 50, height: 7.5). Fluorescence polarization data was evaluated on Origin 2018. The dissociation constants (Kd) were determined by using the appropriate quadratic and cubic equations inserted as a user-defined function and applying nonlinear fit until convergence. The fitting formulae are shown at Supplementary note 1. Kd ratio distributions for Fig. 6 were calculated using a Monte-Carlo approach (Supplementary note 2).
Supplementary note 1. Curve fitting of fluorescence polarization (FP) measurements.
To evaluate polarization values from direct and competitive titrations, we used the following fitting formulae in Origin 2018, as detailed below.
Direct titration curves were fitted according to the following formula: […]
Where Imin is the minimal anisotropy, Imax is the (asymptotically estimated) maximal intensity. K0 is the starting concentration of the protein, while T0 is the (fixed) concentration of the labelled peptide and Kd is the dissociation constant.
Competitive titration curves were fitted with a different formula (In addition to those defined above, constants KdT KdB B0 T0 and D0 here refer to the Kd derived from the direct titration, the unknown Kd of the analyte, the labelled peptide concentration, the competitor peptide concentration as well as the protein concentration, respectively).
The ± sign refers to two different scenarios, depending on the sign of discriminant (KdT > KdB or […]). For unknown analytes, the choice of sign is not arbitrary, as the fitting will not converge unless the appropriate formula is chosen: […]
Where A, B and C correspond to the following expressions: […]
For orientation: Polarisation of emitted light reports the rotation of a fluorescent probe.

The values that follow come from publication PMC9481563, “Structural insights into the pSer/pThr dependent regulation of the SHP2 tyrosine phosphatase in insulin and CD28 signaling” (Nature Communications, 2022).

By Kd is commonly meant the constant that tells how readily two partners part at equilibrium. Low values mean higher affinity, high ones lower affinity.

Consider `CSCC[C@H](NC(=O)[C@@H]1CCCN1C(=O)[C@H](CCSC)NC(=O)[C@H](Cc1ccc(OP(=O)(O)O)cc1)NC(=O)[C@H](CC(=O)O)NC(=O)CNC(=O)[C@H](CO)NC(=O)CNC(=O)[C@H](CCCCN)NC(=O)[C@H](CCCNC(=N)N)NC(=O)CN)C(=O)N[C@@H](COP(=O)(O)O)C(=O)N1CCC[C@H]1C(=O)N[C@@H](CCCCN)C(=O)N[C@@H](CO)C(=O)O` [ppIRS1], for which the Kd was determined as 5.25 ± 0.3 µM.
To `CSCC[C@H](NC(=O)[C@@H]1CCCN1C(=O)[C@H](CCSC)NC(=O)[C@H](Cc1ccc(OP(=O)(O)O)cc1)NC(=O)[C@H](CC(=O)O)NC(=O)CNC(=O)[C@H](CO)NC(=O)CNC(=O)[C@H](CCCCN)NC(=O)[C@H](CCCNC(=N)N)NC(=O)CN)C(=O)N[C@@H](CO)C(=O)N1CCC[C@H]1C(=O)N[C@@H](CCCCN)C(=O)N[C@@H](CO)C(=O)O` [p0IRS1] belongs 255 ± 34.9 µM; to `CSCC[C@H](NC(=O)[C@H](Cc1ccc(OP(=O)(O)O)cc1)NC(=O)[C@H](CC(=O)O)NC(=O)[C@H](CO)NC(=O)[C@H](Cc1c[nH]cn1)NC(=O)[C@H](CC(C)C)NC(=O)[C@H](CC(C)C)NC(=O)[C@H](CCCNC(=N)N)NC(=O)[C@H](CO)NC(=O)[C@@H](N)CCCNC(=N)N)C(=O)N[C@@H](CC(N)=O)C(=O)N[C@@H](CCSC)C(=O)N[C@H](C(=O)N1CCC[C@H]1C(=O)N[C@@H](CCCNC(=N)N)C(=O)N[C@@H](CCCNC(=N)N)C(=O)O)[C@@H](C)OP(=O)(O)O` [ppCD28], 5.66 ± 0.29 µM; to `CSCC[C@H](NC(=O)[C@H](Cc1ccc(OP(=O)(O)O)cc1)NC(=O)[C@H](CC(=O)O)NC(=O)[C@H](CO)NC(=O)[C@H](Cc1c[nH]cn1)NC(=O)[C@H](CC(C)C)NC(=O)[C@H](CC(C)C)NC(=O)[C@H](CCCNC(=N)N)NC(=O)[C@H](CO)NC(=O)[C@@H](N)CCCNC(=N)N)C(=O)N[C@@H](CC(N)=O)C(=O)N[C@@H](CCSC)C(=O)N[C@H](C(=O)N1CCC[C@H]1C(=O)N[C@@H](CCCNC(=N)N)C(=O)N[C@@H](CCCNC(=N)N)C(=O)O)[C@@H](C)O` [p0CD28], 39.7 ± 1.81 µM.
As for `CC[C@H](C)[C@H](NC(=O)[C@H](CC(N)=O)NC(=O)[C@@H](NC(=O)[C@H](Cc1ccc(OP(=O)(O)O)cc1)NC(=O)[C@H](CCC(=O)O)NC(=O)CNC(=O)[C@@H]1CCCN1C(=O)[C@H](CO)NC(=O)[C@H](CCCCN)NC(=O)[C@@H]1CCCN1C(=O)[C@@H](N)CCC(=O)O)C(C)C)C(=O)N[C@@H](CCC(=O)O)C(=O)N[C@@H](Cc1ccccc1)C(=O)O` [p0SRev-IRS1], the figure is 8.4 ± 0.75 µM.
As for `CC[C@H](C)[C@H](NC(=O)[C@H](CC(N)=O)NC(=O)[C@@H](NC(=O)[C@H](Cc1ccc(OP(=O)(O)O)cc1)NC(=O)[C@H](CCC(=O)O)NC(=O)CNC(=O)[C@@H]1CCCN1C(=O)[C@H](COP(=O)(O)O)NC(=O)[C@H](CCCCN)NC(=O)[C@@H]1CCCN1C(=O)[C@@H](N)CCC(=O)O)C(C)C)C(=O)N[C@@H](CCC(=O)O)C(=O)N[C@@H](Cc1ccccc1)C(=O)O` [ppSRev-IRS1], the figure is 0.72 ± 0.06 µM.
